# Test results taken from patent US20040224995A1 (University of North Texas Health Science Center at Fort …, priority 2003, published 2004).
# Tests used:
# HT-22 cells = test: HT-22 cell viability during glutamate exposure (calcein AM assay); format: cell-based; details: for neuroprotective effect of prostaglandins against glutamate toxicity: added 24 h before glutamate (15 mM), viability 15 h later
# Excerpt: Although not wanting to be bound by theory, the toxicity of glutamate in HT-22 (32) and C6 glioma (33) cell lines is mediated through oxidative stress. HT-22 cells lack ionotropic N-methyl-D-aspartate (“NMDA”) glutamate receptors, and the glutamate-induced cell death appears to occur via a slow onset oxidative stress (32,34,35). Glutamate blocks cystine uptake by inhibiting the glutamate/cystine antiporter in both HT-22 (32) and C6 glioma (33) cell lines. Since cysteine is required for glutathione (“GSH”) synthesis, the intracellular concentration of GSH decreases as a consequence. BSO depletes intracellular glutathione by inhibiting γ-glutamylcysteine synthetase, the rate-limiting enzyme in glutathione synthesis (33). […] Troglitazone further protected HT-22 (FIG. 14) and RGC-5 (FIG. 15) against BSO. The cell viability was taken at time points around about 14 to 24 hours post-insult time. In some of the experiments, the viability of cells was determined using 2.5 μM calcein AM assay in phosphate-buffered saline (PBS 1×). After 25 minutes of incubation, live cells were distinguished by the presence of intracellular esterase activity, which cleaves the calcein AM dye, producing a bright green fluorescence, as shown in FIG. 22. Viability was measured in Relative Fluorescent Units (“RFU”), and expressed as percentage of vehicle-treated control values.
# 15d-PGJ2 and two TZD's (e.g. troglitazone and ciglitazone) were tested for their ability to protect HT-22 cells against glutamate toxicity. […] HT-22 cells were treated with 15-dPGJ2 twenty-four hours prior to a glutamate insult (15 mM). […] The data of FIG. 24 was quantified using the calcein AM assay (see FIG. 22). Results are expressed in % survival of the control (non-glutamate-treated) cultures. DMSO received the vehicle only for 15d-PGJ2. Shown are mean±SEM for 6. The asterisk (“*”) indicates p<0.05 vs. respective control.
# In order to conduct these experiments, the following compounds: PGA1; PGA2; PGJ2; Δ^12PGJ2; and 15d-PGJ2 were ordered from Biomol, Plymouth Meeting, Pa. HT-22, an immortalized mouse hippocampal cell line, C6 rat glioma, RGC-5 retinal ganglion cells were used. Cells were grown to confluence in DMEM media, and supplemented with 10% charcoal/dextran-treated fetal bovine serum (“FBS”), and […] gentamycin at 37° C. under 95% air, 5% CO2. HT-22, C6, and RGC-5 cells were plated at a density of 50,000, 35,000, and 10,000 cells/ml, respectively, in 96-well plates. Wells were pre-treated with cyclopentenone PGs at various times prior to being subjected to glutamate, hydrogen peroxide (H2O2), or BSO insults.
# The WY-14643, Ciglitazone, Troglitazone, 9-cis retinoic acid, and 15d-PGJ2 compounds were purchased from Biomol (Plymouth Meeting, Pa.). L-165041 and L-783483 were kindly provided by Merck Laboratories. The cell lines used were HT-22, an immortalized mouse hippocampal cell line, and SK—N—SH, a human neuroblastoma cell line. The HT-22 cells were obtained from David Schubert (Salk Institute, San Diego, Calif.). The HT-22 line was originally selected from HT-4 cells based on glutamate sensitivity. HT-4 cells were immortalized from primary hippocampal neurons using a temperature-sensitive SV-40 T antigen (Morimoto and Koshland, 1990). SK—N—SH were obtained from ATCC (Manassas, Va.). HT-22 and SK—N—SH cells were grown to confluence in DMEM and RPMI-1640 media, respectively, and supplemented with 10% charcoal/dextran-treated fetal bovine serum (FBS), and 5 mg/ml gentamycin at 37° C. under 95% air, 5% CO2. HT-22 cells were plated at a density of 50,000 cells/ml (5,000 cells/well), and SK—N—SH were plated at a density of 120,000 to 150,000 cells/ml (12,000 to 15,000 cells/well) in 96-well plates. In most studies, wells were pre-treated with PPAR ligands over a wide dose range at various times prior to being subjected to either glutamate, hydrogen peroxide (H2O2), or serum deprivation insults. In some studies, the insults were applied prior to the addition of the PPAR ligand. […]
# PPARγ = details: Berger et al., 1999; cited from earlier work
# PPAR-β = biological target: T1, PPAR-β (Homo sapiens, UniProt Q03181); details: Berger et al., 1999; read-out: EC50 for activation of PPAR-β; cited from earlier work
# T1 sequence (Q03181 1-441): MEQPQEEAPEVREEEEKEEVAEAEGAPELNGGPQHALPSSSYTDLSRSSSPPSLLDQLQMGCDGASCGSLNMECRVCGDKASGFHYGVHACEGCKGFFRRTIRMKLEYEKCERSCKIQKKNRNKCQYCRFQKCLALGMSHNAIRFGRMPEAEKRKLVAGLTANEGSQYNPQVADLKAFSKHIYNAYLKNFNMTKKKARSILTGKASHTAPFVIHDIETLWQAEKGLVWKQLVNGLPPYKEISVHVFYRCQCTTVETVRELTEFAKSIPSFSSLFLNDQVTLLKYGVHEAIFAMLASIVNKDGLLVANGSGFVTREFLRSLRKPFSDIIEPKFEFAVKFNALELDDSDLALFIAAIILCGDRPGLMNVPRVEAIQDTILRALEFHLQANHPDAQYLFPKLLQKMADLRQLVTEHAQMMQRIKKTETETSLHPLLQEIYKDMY
# [1] = test system: infarct after MCA occlusion; details: intraventricular, 660 ng, 30 min before MCA occlusion; Satoh et al.; cited from earlier work
# PPAR-γ = details: cited from earlier work
# PPAR alpha = details: Issemann and Green, 1990; read-out: EC50 for activation of PPAR alpha; cited from earlier work
smiles,measurement,setting,value
CCCCC[C@H](O)/C=C/C1=C(C/C=C\CCCC(=O)O)C(=O)CC1 [PGB2],neuroprotective effect of prostaglandins against glutamate toxicity,HT-22 cells,did not display any neuroprotective effects
CCCc1c(OCCCOc2ccc(OCC(=O)O)cc2)ccc(C(C)=O)c1O [L-165041],effect on glutamate toxicity,"HT-22 cells; 1 nM to 50 μM, pretreated 24 h, glutamate 20 mM",failed to affect glutamate toxicity
same,concentrations inducing weak activity of PPARγ,PPARγ,> 51 µM
same,EC50,PPAR-β,~500 nM
COC(=O)CCCCC/C=C1/C(=O)C=C[C@H]1CCCCCCc1ccc(C)cc1 [NEPP-11],decrease of infarct volume,[1],about 50%
"CC1(COc2ccc(CC3SC(=O)NC3=O)cc2)CCCCC1 (stereo not shown) [ciglitazone, 5-[4-(1-methylcyclohexylmethoxy)benzyl]-thiazolidine-2,4-dione]",neuroprotective effects,HT-22 cells; concentrations up to 40 μM,did not have any neuroprotective effects
same,protection against glutamate toxicity,HT-22 cells; pretreatment at various concentrations,failed to protect
same,affinity for PPAR-γ,PPAR-γ; similar to that of 15d-PGJ2,low micromolar (μM) range
CCCCC[C@H](O)/C=C/[C@H]1C=CC(=O)[C@@H]1CCCCCCC(=O)O [PGA1],neuroprotective effect of prostaglandins against glutamate toxicity,HT-22 cells,neuroprotective effects
"CC(C)(c1ccc(OCC2CO2)cc1)c1ccc(OCC2CO2)cc1 (stereo not shown) [BADGE, Bisphenol diglycidyl ether]",toxicity in the cell model,HT-22 cells; at concentrations close to Ki (100 μM),showed some toxicity
same,Ki,PPAR-γ; read-out: Ki value as PPARγ antagonist,100000 nM
"Cc1cccc(Nc2cc(Cl)nc(SCC(=O)O)n2)c1C [WY 14,643]",effect at the highest concentration on glutamate toxicity,"HT-22 cells; highest concentration tested, glutamate 20 mM",enhanced glutamate toxicity
same,prevention of glutamate-induced cell death,"HT-22 cells; pretreatment 24 h, 1 to 40 μM, glutamate 20 mM",failed to prevent glutamate-induced cell death
same,EC50,PPAR alpha,~1500 nM
CCCCC[C@H](O)/C=C/[C@H]1C=CC(=O)[C@@H]1C/C=C\CCCC(=O)O [PGA2],neuroprotective effect of prostaglandins against glutamate toxicity,HT-22 cells,neuroprotective effects
CC1=C(/C=C/C(C)=C\C=C\C(C)=C\C(=O)O)C(C)(C)CCC1 [9-cis retinoic acid],effect of adding 9-cis retinoic acid on neuroprotection by 15d-PGJ2,"HT-22 cells; 1 μM 9-cis retinoic acid with 15d-PGJ2, glutamate exposure",did not alter the neuroprotective effects
